Reference: patent US20250051409A1, “MODULATORS OF PHOSPHATIDYLSERlNE DECARBOXYLASE AND USE THEREOF” (THE NATIONAL INSTITUTE FOR BIOTECHNOLOGY IN THE NEGEV LTD., priority 2021, published 2025)
Square brackets hold non-standard residues; d marks the D form. Ends that are not written are not given here. Peptide text beside a SMILES is read from it. Dmt = Cc1cc(O)cc(C)c1C[C@H](N)C(=O)O; Orn = NCCC[C@H](N)C(=O)O

Tested on: A549 lung cancer cell
Format: cell-based, human
Settings: not given
Description: (B) Inhibition of PSD activity by the 2F3 (●) or 1C11 (◯) peptide. PSD activity was measured using the DSB-3 method. (C-E) Cell proliferation inhibition following incubation of A549 cells with the indicated mitochondria- or nuclear-targeted peptides for 24 h in a serum-free medium, and cell proliferation was assayed using the SRB method. Results are the means±SEM (n=3). (F) A549 cells were incubated for 90 min with 5 μM of the mitochondria- or nuclear targeted FITC-labelled peptides, immunostained with anti-SMAC antibodies and with DAPI and visualized by confocal microscope for subcellular localization. Arrows indicates nuclear (n=3). Scale bars represent 20
(A) A549 cells were incubated with the indicated concentration of 1C11-HTRA2-derived peptide targeted to the mitochondrion with the targeting sequence added to the N-terminus (N-Ter) or the C-terminus (C-Ter). (B) Mitochondrion targeted 1C11-HTRA2-derived peptide was modified by replacing the three amino acids in the C or the N-terminus of the peptide, or all amino acids in the peptide with the D-confirmation of the amino acid (underlined amino acids)). Following 24 h incubation in a serum-free medium, cell proliferation was assayed using the SRB method. (C) The concentration required for 50% inhibition of cell proliferation (IC50) is presented. Results are the means±SEM (n=3).
A549 (human lung adenocarcinoma epithelial cell), HEK-293T (human embryonic kidney), H1563/CRL-5875 (non-small cell lung cancer adenocarcinoma), H-358 (bronchioalveolar carcinoma), HaCaT (spontaneously transformed aneuploid immortal human skin keratinocyte), and WI-38 (fibroblast-like fetal lung cell) cell lines were purchased from the American Type Culture Collection (ATCC) (Manassas, VA), and were maintained as per ATCC instructions. Cells were maintained in ATCC recommended medium at 37° C. in an incubator with 5% CO2. Cell lines were routinely tested for Mycoplasma contamination. For SMAC overexpression, cells were seeded (200,000 cells/well) on 6-well culture plates and allowed to adhere overnight. These adhered cells were transfected with PVMV3.1-SMAC or empty vector using the JetPRIME transfection reagent (Illkirch, France), according to the manufacturers' instructions. Medium was changed 6 h post transfection, and cells were harvested 48 h post transfection.
Cells were seeded in 96-well cell culture plates (8,000/well) and allowed to grow for 48 h. After washing with PBS, cells were fixed with 10% trichloroacetic acid, and stained with SRB for 20 min. Excess SRB were removed, and cells were washed with 1% acetic acid. SRB extraction was done using 100 mM Tris-base, and absorbance at 510 nm was determined using an Infinite M1000 plate reader (Tecan, Mannedorf, Switzerland).

Compound	IC50 [µM]
ALSTSSPIPSVPQSQAQPQTGSGAS [2F3]	19.6

Same assay, conditions: 24 h

Compound	IC50 [µM]
CC[C@H](C)[C@H](NC(=O)[C@@H](NC(=O)[C@H](CC(N)=O)NC(=O)[C@H](C)NC(=O)[C@H](CCCCN)NC(=O)[C@H](CC(C)C)NC(=O)[C@H](CC(C)C)NC(=O)[C@H](CC(N)=O)NC(=O)[C@H](CC(=O)O)NC(=O)[C@H](CC(C)C)NC(=O)[C@@H](NC(=O)[C@@H]1CCCN1C(=O)[C@H](CC(C)C)NC(=O)[C@@H](NC(=O)[C@H](CS)NC(=O)[C@@H](NC(=O)[C@H](CC(C)C)NC(=O)[C@H](CCC(N)=O)NC(=O)[C@H](CCC(N)=O)NC(=O)[C@H](Cc1ccccc1)NC(=O)[C@H](Cc1ccccc1)NC(=O)[C@H](CCCN)NC(=O)[C@H](Cc1c(C)cc(O)cc1C)NC(=O)[C@H](N)CCCNC(=N)N)[C@@H](C)O)C(C)C)[C@@H](C)CC)C(C)C)C(=O)N[C@@H](CC(N)=O)C(=O)N[C@@H](CCCCN)C(=O)N[C@@H](CCC(N)=O)C(=O)N[C@@H](CCC(=O)O)C(=O)N[C@@H](Cc1c[nH]cn1)C(=O)O [D-Arg-Dmt-Orn-Phe-1E14] (H-[dR][Dmt][Orn]FFQQLTCVLPILDNLLKANVINKQEH-OH; N-terminus and C-terminus assumed)	> 100
Cc1cc(O)cc(C)c1C[C@H](NC(=O)[C@H](N)CCCNC(=N)N)C(=O)N[C@@H](CCCN)C(=O)N[C@@H](Cc1ccccc1)C(=O)N1CCC[C@H]1C(=O)N[C@@H](CC(N)=O)C(=O)N[C@@H](CCC(N)=O)C(=O)N[C@@H](CO)C(=O)N[C@@H](CO)C(=O)N[C@@H](CCCNC(=N)N)C(=O)N[C@@H](C)C(=O)N[C@@H](Cc1ccccc1)C(=O)N[C@@H](CCC(N)=O)C(=O)NCC(=O)N[C@H](C(=O)N[C@@H](CC(=O)O)C(=O)N[C@@H](Cc1c[nH]cn1)C(=O)N[C@@H](CO)C(=O)N[C@@H](CO)C(=O)N[C@@H](CC(=O)O)C(=O)N[C@@H](CC(C)C)C(=O)N[C@@H](C)C(=O)N[C@@H](Cc1ccccc1)C(=O)N[C@@H](CC(=O)O)C(=O)N[C@@H](Cc1ccccc1)C(=O)N[C@@H](CC(C)C)C(=O)N[C@@H](CO)C(=O)N[C@@H](CCC(N)=O)C(=O)N[C@@H](CCC(N)=O)C(=O)O)[C@@H](C)O [D-Arg-Dmt-Orn-Phe-2I8] (H-[dR][Dmt][Orn]FPNQSSRAFQGTDHSSDLAFDFLSQQ-OH; N-terminus and C-terminus assumed)	66.8 ± 4.7
CC[C@H](C)[C@H](NC(=O)[C@@H]1CCCN1C(=O)[C@H](CO)NC(=O)[C@H](CO)NC(=O)[C@@H](NC(=O)[C@H](CO)NC(=O)[C@H](CC(C)C)NC(=O)[C@H](C)NC(=O)[C@H](Cc1ccccc1)NC(=O)[C@H](CCCN)NC(=O)[C@H](Cc1c(C)cc(O)cc1C)NC(=O)[C@H](N)CCCNC(=N)N)[C@@H](C)O)C(=O)N1CCC[C@H]1C(=O)N[C@@H](CO)C(=O)N[C@H](C(=O)N1CCC[C@H]1C(=O)N[C@@H](CCC(N)=O)C(=O)N[C@@H](CO)C(=O)N[C@@H](CCC(N)=O)C(=O)N[C@@H](C)C(=O)N[C@@H](CCC(N)=O)C(=O)N1CCC[C@H]1C(=O)N[C@@H](CCC(N)=O)C(=O)N[C@H](C(=O)NCC(=O)N[C@@H](CO)C(=O)NCC(=O)N[C@@H](C)C(=O)N[C@@H](CO)C(=O)O)[C@@H](C)O)C(C)C [H-(D-Arg)-Dmt-Orn-Phe-2F3] (H-[dR][Dmt][Orn]FALSTSSPIPSVPQSQAQPQTGSGAS-OH; C-terminus assumed)	> 100
CC(C)C[C@H](NC(=O)[C@H](CCCNC(=N)N)NC(=O)[C@H](C)NC(=O)[C@H](Cc1c[nH]c2ccccc12)NC(=O)[C@H](CC(C)C)NC(=O)[C@H](CO)NC(=O)[C@@H]1CCCN1C(=O)[C@@H](NC(=O)CNC(=O)[C@H](Cc1ccc(O)cc1)NC(=O)[C@@H](NC(=O)[C@@H](NC(=O)[C@H](CCCNC(=N)N)NC(=O)[C@H](C)NC(=O)[C@H](CCCNC(=N)N)NC(=O)[C@@H]1CCCN1C(=O)[C@H](CC(=O)O)NC(=O)[C@H](CO)NC(=O)[C@@H](NC(=O)CNC(=O)[C@H](CO)NC(=O)[C@@H](NC(=O)[C@H](CC(C)C)NC(=O)[C@H](CC(C)C)NC(=O)[C@H](C)NC(=O)[C@H](CCCCN)NC(=O)[C@H](CCCNC(=N)N)NC(=O)[C@@H](CCCNC(=N)N)NC(=O)[C@@H](N)CCCNC(=N)N)[C@@H](C)O)[C@@H](C)O)C(C)C)[C@@H](C)O)[C@@H](C)O)C(=O)O [R-{D-Arg}-RK-1C11] (H-R[dR]RKALLTSGTSDPRARVTYGTPSLWARL-OH; N-terminus and C-terminus assumed)	66.5 ± 3.9
CC[C@H](C)[C@H](NC(=O)[C@@H](NC(=O)[C@H](CC(N)=O)NC(=O)[C@H](C)NC(=O)[C@H](CCCCN)NC(=O)[C@H](CC(C)C)NC(=O)[C@H](CC(C)C)NC(=O)[C@H](CC(N)=O)NC(=O)[C@H](CC(=O)O)NC(=O)[C@H](CC(C)C)NC(=O)[C@@H](NC(=O)[C@@H]1CCCN1C(=O)[C@H](CC(C)C)NC(=O)[C@@H](NC(=O)[C@H](CS)NC(=O)[C@@H](NC(=O)[C@H](CC(C)C)NC(=O)[C@H](CCC(N)=O)NC(=O)[C@H](CCC(N)=O)NC(=O)[C@H](Cc1ccccc1)NC(=O)[C@H](CCCCN)NC(=O)[C@H](CCCNC(=N)N)NC(=O)[C@@H](CCCNC(=N)N)NC(=O)[C@@H](N)CCCNC(=N)N)[C@@H](C)O)C(C)C)[C@@H](C)CC)C(C)C)C(=O)N[C@@H](CC(N)=O)C(=O)N[C@@H](CCCCN)C(=O)N[C@@H](CCC(N)=O)C(=O)N[C@@H](CCC(=O)O)C(=O)N[C@@H](Cc1c[nH]cn1)C(=O)O [R-{D-Arg}-RK-1E14] (H-R[dR]RKFQQLTCVLPILDNLLKANVINKQEH-OH; N-terminus and C-terminus assumed)	> 100
CC[C@H](C)[C@H](NC(=O)[C@@H]1CCCN1C(=O)[C@H](CO)NC(=O)[C@H](CO)NC(=O)[C@@H](NC(=O)[C@H](CO)NC(=O)[C@H](CC(C)C)NC(=O)[C@H](C)NC(=O)[C@H](CCCCN)NC(=O)[C@H](CCCNC(=N)N)NC(=O)[C@@H](CCCNC(=N)N)NC(=O)[C@@H](N)CCCNC(=N)N)[C@@H](C)O)C(=O)N1CCC[C@H]1C(=O)N[C@@H](CO)C(=O)N[C@H](C(=O)N1CCC[C@H]1C(=O)N[C@@H](CCC(N)=O)C(=O)N[C@@H](CO)C(=O)N[C@@H](CCC(N)=O)C(=O)N[C@@H](C)C(=O)N[C@@H](CCC(N)=O)C(=O)N1CCC[C@H]1C(=O)N[C@@H](CCC(N)=O)C(=O)N[C@H](C(=O)NCC(=O)N[C@@H](CO)C(=O)NCC(=O)N[C@@H](C)C(=O)N[C@@H](CO)C(=O)O)[C@@H](C)O)C(C)C [R-{D-Arg}-RK-2F3] (H-R[dR]RKALSTSSPIPSVPQSQAQPQTGSGAS-OH; N-terminus and C-terminus assumed)	28.9 ± 5.2
CC(C)C[C@H](NC(=O)[C@H](CC(=O)O)NC(=O)[C@H](CO)NC(=O)[C@H](CO)NC(=O)[C@H](Cc1c[nH]cn1)NC(=O)[C@H](CC(=O)O)NC(=O)[C@@H](NC(=O)CNC(=O)[C@H](CCC(N)=O)NC(=O)[C@H](Cc1ccccc1)NC(=O)[C@H](C)NC(=O)[C@H](CCCNC(=N)N)NC(=O)[C@H](CO)NC(=O)[C@H](CO)NC(=O)[C@H](CCC(N)=O)NC(=O)[C@H](CC(N)=O)NC(=O)[C@@H]1CCCN1C(=O)[C@H](CCCCN)NC(=O)[C@H](CCCNC(=N)N)NC(=O)[C@@H](CCCNC(=N)N)NC(=O)[C@@H](N)CCCNC(=N)N)[C@@H](C)O)C(=O)N[C@@H](C)C(=O)N[C@@H](Cc1ccccc1)C(=O)N[C@@H](CC(=O)O)C(=O)N[C@@H](Cc1ccccc1)C(=O)N[C@@H](CC(C)C)C(=O)N[C@@H](CO)C(=O)N[C@@H](CCC(N)=O)C(=O)N[C@@H](CCC(N)=O)C(=O)O [R-{D-Arg}-RK-2I8] (H-R[dR]RKPNQSSRAFQGTDHSSDLAFDFLSQQ-OH; N-terminus and C-terminus assumed)	> 100

Same assay, conditions: targeted to the mitochondria or the nucleus

Compound	effect on cell growth
FQQLTCVLPILDNLLKANVINKQEH [1E14]	no effect on cell growth
